Assay results reported in patent US11427548B2 (Arvinas Operations, Inc., priority 2015, dated 2022).

Target: T1, Androgen Receptor (Homo sapiens, UniProt P10275)
T1 construct: endogenous in cells; host or cells: VCaP cells
T1 sequence (P10275 1-920): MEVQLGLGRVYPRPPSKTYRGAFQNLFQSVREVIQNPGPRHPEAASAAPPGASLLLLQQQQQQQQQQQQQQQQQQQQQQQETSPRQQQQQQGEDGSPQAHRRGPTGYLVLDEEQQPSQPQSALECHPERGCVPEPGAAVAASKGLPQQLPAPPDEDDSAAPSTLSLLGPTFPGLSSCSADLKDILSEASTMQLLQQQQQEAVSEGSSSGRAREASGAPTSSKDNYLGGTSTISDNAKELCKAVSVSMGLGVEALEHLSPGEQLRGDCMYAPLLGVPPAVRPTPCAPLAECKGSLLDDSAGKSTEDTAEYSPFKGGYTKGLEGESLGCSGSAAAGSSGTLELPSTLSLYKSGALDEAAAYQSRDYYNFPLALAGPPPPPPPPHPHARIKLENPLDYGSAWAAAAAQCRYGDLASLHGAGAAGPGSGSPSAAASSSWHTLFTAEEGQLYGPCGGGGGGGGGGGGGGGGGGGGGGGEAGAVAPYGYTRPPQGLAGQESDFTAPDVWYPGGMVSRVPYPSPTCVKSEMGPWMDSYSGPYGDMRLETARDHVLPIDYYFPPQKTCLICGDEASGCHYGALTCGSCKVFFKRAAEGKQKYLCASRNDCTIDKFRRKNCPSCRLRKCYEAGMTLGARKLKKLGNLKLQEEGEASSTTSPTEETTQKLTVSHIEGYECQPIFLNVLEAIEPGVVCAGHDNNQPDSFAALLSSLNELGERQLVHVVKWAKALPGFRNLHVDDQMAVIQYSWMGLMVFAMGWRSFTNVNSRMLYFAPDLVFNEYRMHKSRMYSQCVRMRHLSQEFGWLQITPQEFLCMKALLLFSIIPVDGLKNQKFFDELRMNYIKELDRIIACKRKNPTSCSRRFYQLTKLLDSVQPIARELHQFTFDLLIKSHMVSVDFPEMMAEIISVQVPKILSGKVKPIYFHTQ
Assay: Androgen Receptor ELISA assay (PathScan AR ELISA) in VCaP cells: AR degradation, Dmax and DC50
Format: cell-based
Conditions: for Dmax: VCaP, read-out: VCaP Dmax (%); for DC50: read-out: VCaP DC50, concentration that caused 50% Androgen Receptor degradation, VCaP cells (Table 32)
Outline: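 VCaP cells, 30,000/well, grown ≥3 days in phenol red-free RPMI with 5% charcoal-stripped FBS; compound added in 0.1% DMSO with 0.1 nM R1881, 7 half-log doses, 24 h. Lysate AR quantified by PathScan sandwich ELISA, HRP/TMB read at 450 nm, giving DC50 and Dmax.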

SMILES	Dmax	DC50
Cc1ncsc1-c1ccc(CNC(=O)[C@@H]2C[C@@H](O)CN2C(=O)[C@@H](NC(=O)COc2ccc(Oc3cccc(-c4ccc(N5C(=S)N(c6ccc(C#N)c(C(F)(F)F)c6)C(=O)C5(C)C)cc4)c3)cc2)C(C)(C)C)cc1 [Example 127, (2S,4R)-1-[(2S)-2-(2-{4-[3-(4-{3-[4-cyano-3-(trifluoromethyl)phenyl]-5,5-dimethyl-4-oxo-2-sulfanylideneimidazolidin-1-yl}phenyl)phen-oxy]phenoxy}acetamido)-3,3-dimethylbutanoyl]-4-hydroxy-N-{[4-(4-methyl-1,3-thiazol-5-yl)phenyl]methyl}pyrrolidine-2-carboxamide]	> 71%	< 50 nM
Cc1ncsc1-c1ccc(CNC(=O)[C@@H]2C[C@@H](O)CN2C(=O)[C@@H](NC(=O)COCCCOCc2ccc(-c3ccc(N4C(=S)N(c5ccc(C#N)c(C(F)(F)F)c5)C(=O)C4(C)C)cc3)cc2)C(C)(C)C)cc1 [Example 128, (2S,4R)-1-[(2S)-2-[2-(3-{[4-(4-{3-[4-cyano-3-(trifluoromethyl)phenyl]-5,5-dimethyl-4-oxo-2-sulfanylideneimidazolidin-1-yl}phenyl)phen-yl]methoxy}propoxy)acetamido]-3,3-dimethylbutanoyl]-4-hydroxy-N-{[4-(4-methyl-1,3-thiazol-5-yl)phenyl]methyl}pyrrolidine-2-carboxamide]	51 to 70%	< 50 nM
Cc1ncsc1-c1ccc(CNC(=O)[C@@H]2C[C@@H](O)CN2C(=O)[C@@H](NC(=O)COCCC(O)COc2ccc(-c3ccc(N4C(=S)N(c5ccc(C#N)c(C(F)(F)F)c5)C(=O)C4(C)C)cc3)cc2)C(C)(C)C)cc1 (stereo partly drawn) [Example 129, (2S,4R)-1-[(2S)-2-(2-{4-[4-(4-{3-[4-cyano-3-(trifluoromethyl)phenyl]-5,5-dimethyl-4-oxo-2-sulfanylideneimidazolidin-1-yl}phenyl)phenoxy]-3-hydroxybutoxy}acetamido)-3,3-dimethylbutanoyl]-4-hydroxy-N-{[4-(4-methyl-1,3-thiazol-5-yl)phenyl]methyl}pyrrolidine-2-carboxamide]	51 to 70%	< 50 nM
Cc1ncsc1-c1ccc(CNC(=O)[C@@H]2C[C@@H](O)CN2C(=O)[C@@H](NC(=O)COC[C@H](O)CCOc2ccc(-c3ccc(N4C(=S)N(c5ccc(C#N)c(C(F)(F)F)c5)C(=O)C4(C)C)cc3)cc2)C(C)(C)C)cc1 [Example 130, (2S,4R)-1-[(2S)-2-{2-[(2R)-4-[4-(4-{3-[4-cyano-3-(trifluoromethyl)phenyl]-5,5-dimethyl-4-oxo-2-sulfanylideneimidazolidin-1-yl}phenyl)phenoxy]-2-hydroxybutoxy]acetamido}-3,3-dimethylbutanoyl]-4-hydroxy-N-{[4-(4-methyl-1,3-thiazol-5-yl)phenyl]methyl}pyrrolidine-2-carboxamide]	51 to 70%	< 50 nM
C[C@H](NC(=O)[C@@H]1C[C@@H](O)CN1C(=O)[C@@H](NC(=O)COCCCCOc1ccc(-c2ccc(N3C(=S)N(c4ccc(C#N)c(Cl)c4)C(=O)C3(C)C)cc2)cc1)C(C)(C)C)c1ccc(-c2cnco2)cc1 [Example 132, (2S,4R)-1-[(2S)-2-{2-[4-(4-{4-[3-(3-chloro-4-cyanophenyl)-5,5-dimethyl-4-oxo-2-sulfanylideneimidazolidin-1-yl]phenyl}phenoxy)butoxy]acetamido}-3,3-dimethylbutanoyl]-4-hydroxy-N-[(1S)-1-[4-(1,3-oxazol-5-yl)phenyl]ethyl]pyrrolidine-2-carboxamide]	> 71%	< 50 nM
CC(C)(C)[C@H](NC(=O)COCCCCOc1ccc(-c2ccc(N3C(=S)N(c4cc(Cl)c(C#N)cc4F)C(=O)C3(C)C)cc2)cc1)C(=O)N1C[C@H](O)C[C@H]1C(=O)NCc1ccc(-c2cnco2)cc1 [Example 133, (2S,4R)-1-[(2S)-2-{2-[4-(4-{4-[3-(5-chloro-4-cyano-2-fluorophenyl)-5,5-dimethyl-4-oxo-2-sulfanylideneimidazolidin-1-yl]phenyl}phenoxy)butoxy]acetamido}-3,3-dimethylbutanoyl]-4-hydroxy-N-{[4-(1,3-oxazol-5-yl)phenyl]methyl}pyrrolidine-2-carboxamide]	< 25%	
Cc1ncoc1-c1ccc(CNC(=O)[C@@H]2C[C@@H](O)CN2C(=O)[C@@H](NC(=O)COCCCC(=O)Nc2ccc(-c3ccc(N4C(=S)N(c5ccc(C#N)c(C(F)(F)F)c5)C(=O)C4(C)C)cc3)cc2)C(C)(C)C)cc1 [Example 135, (2S,4R)-1-[(2S)-2-[2-(3-{[4-(4-{3-[4-cyano-3-(trifluoromethyl)phenyl]-5,5-dimethyl-4-oxo-2-sulfanylideneimidazolidin-1-yl}phenyl)phenyl]carbamoyl}pro-poxy)acetamido]-3,3-dimethylbutanoyl]-4-hydroxy-N-{[4-(4-methyl-1,3-oxazol-5-yl)phenyl]methyl}pyrrolidine-2-carboxamide]	51 to 70%	< 50 nM
Cc1cc(OCCCCOCC(=O)N[C@H](C(=O)N2C[C@H](O)C[C@H]2C(=O)NCc2ccc(-c3scnc3C)cc2)C(C)(C)C)ccc1-c1ccc(N2C(=S)N(c3ccc(C#N)c(C(F)(F)F)c3)C(=O)C2(C)C)cc1 [Example 136, (2S,4R)-1-[(2S)-2-(2-{4-[4-(4-{3-[4-cyano-3-(trifluoromethyl)phenyl]-5,5-dimethyl-4-oxo-2-sulfanylideneimidazolidin-1-yl}phenyl)-3-methylphenoxy]butoxy}acetamido)-3,3-dimethylbutanoyl]-4-hydroxy-N-{[4-(4-methyl-1,3-thiazol-5-yl)phenyl]methyl}pyrrolidine-2-carboxamide]	> 71%	< 50 nM
Cc1ncsc1-c1ccc([C@H](C)NC(=O)[C@@H]2C[C@@H](O)CN2C(=O)[C@@H](NC(=O)COCCCCOc2ccc(-c3ccc(N4C(=S)N(c5ccc(C#N)c(C(F)(F)F)c5)C(=O)C4(C)C)c(F)c3)cc2)C(C)(C)C)cc1 [Example 137, (2S,4R)-1-[(2S)-2-(2-{4-[4-(4-{3-[4-cyano-3-(trifluoromethyl)phenyl]-5,5-dimethyl-4-oxo-2-sulfanylideneimidazolidin-1-yl}-3-fluorophenyl)phenoxy]butoxy}acetamido)-3,3-dimethylbutanoyl]-4-hydroxy-N-[(1S)-1-[4-(4-methyl-1,3-thiazol-5-yl)phenyl]ethyl]pyrrolidine-2-carboxamide]	> 71%	< 50 nM
Cc1ncoc1-c1ccc([C@H](C)NC(=O)[C@@H]2C[C@@H](O)CN2C(=O)[C@@H](NC(=O)COCCCCOc2ccc(-c3ccc(N4C(=S)N(c5ccc(C#N)c(C(F)(F)F)c5)C(=O)C4(C)C)c(F)c3)cc2)C(C)(C)C)cc1 [Example 138, (2S,4R)-1-[(2S)-2-(2-{4-[4-(4-{3-[4-cyano-3-(trifluoromethyl)phenyl]-5,5-dimethyl-4-oxo-2-sulfanylideneimidazolidin-1-yl}-3-fluorophenyl)phen-oxy]butoxy}acetamido)-3,3-dimethylbutanoyl]-4-hydroxy-N-[(1S)-1-[4-(4-methyl-1,3-oxazol-5-yl)phenyl]ethyl]pyrrolidine-2-carboxamide]	> 71%	< 50 nM
COc1cc(-c2ccc(N3C(=S)N(c4ccc(C#N)c(C(F)(F)F)c4)C(=O)C3(C)C)cc2)ccc1OCCCCOCC(=O)N[C@H](C(=O)N1C[C@H](O)C[C@H]1C(=O)NCc1ccc(-c2scnc2C)cc1)C(C)(C)C [Example 139, (2S,4R)-1-[(2S)-2-(2-{4-[4-(4-{3-[4-cyano-3-(trifluoromethyl)phenyl]-5,5-dimethyl-4-oxo-2-sulfanylideneimidazolidin-1-yl}phenyl)-2-methoxyphenoxy]butoxy}acetamido)-3,3-dimethylbutanoyl]-4-hydroxy-N-{[4-(4-methyl-1,3-thiazol-5-yl)phenyl]methyl}pyrrolidine-2-carboxamide]	> 71%	< 50 nM
COc1cc(OCCCCOCC(=O)N[C@H](C(=O)N2C[C@H](O)C[C@H]2C(=O)NCc2ccc(-c3scnc3C)cc2)C(C)(C)C)ccc1-c1ccc(N2C(=S)N(c3ccc(C#N)c(C(F)(F)F)c3)C(=O)C2(C)C)cc1 [Example 140, (2S,4R)-1-[(2S)-2-(2-{4-[4-(4-{3-[4-cyano-3-(trifluoromethyl)phenyl]-5,5-dimethyl-4-oxo-2-sulfanylideneimidazolidin-1-yl}phenyl)-3-methoxyphenoxy]butoxy}acetamido)-3,3-dimethylbutanoyl]-4-hydroxy-N-{[4-(4-methyl-1,3-thiazol-5-yl)phenyl]methyl}pyrrolidine-2-carboxamide]	> 71%	< 50 nM
